{"source": "patent US4129721A", "about": "“A-40104 antibiotics and process for production thereof” (priority 1977, dated 1978)", "key": {"[1]": {"system": "Bacteroides fragilis 1936B", "test": "standard agar-dilution test, anaerobic bacteria", "type": "cell-based", "conditions": "2 h"}, "electrometric titration": {"test": "electrometric titration", "type": "physicochemical", "conditions": "66 percent aqueous dimethylformamide"}, "Bacteroides vulgatis": {"system": "Bacteroides vulgatis", "test": "standard agar-dilution test, anaerobic bacteria", "type": "cell-based", "conditions": "2 h"}, "Mycoplasma gallisepticum": {"system": "Mycoplasma gallisepticum", "test": "in vitro broth-dilution studies, mycoplasma", "type": "cell-based", "text": "(§1) The minimal inhibitory concentrations (MIC's) of A-40104 factor A; 19,20-dihydro-A-40104 factor A; and the tetraacetyl derivative of A-40104A against various mycoplasma species, as determined by in vitro broth-dilution studies, are summarized in Table IX."}, "Mycoplasma synoviae": {"system": "Mycoplasma synoviae", "test": "in vitro broth-dilution studies, mycoplasma", "type": "cell-based", "text": "as §1"}, "Mycoplasma hyopneumoniae": {"system": "Mycoplasma hyopneumoniae", "test": "in vitro broth-dilution studies, mycoplasma", "type": "cell-based", "text": "as §1"}, "[2]": {"system": "Staphylococcus aureus 3074", "test": "standard disc-plate assay", "type": "cell-based", "conditions": "Penicillin-G resistant, disc diameter 6.35 mm, read-out: Zone Diameters", "protocol": "(§2) In one important aspect of this activity, the A-40104 antibiotics inhibit the growth of organisms which are resistant to other antibiotics. In Table IV the standard disc-plate-assay activity of A-40104 factors A and B against representative organisms is summarized. Activity is measured as the diameter (in mm) of the observed zone of inhibition; the diameter of disc used in each case was 6.35 mm."}, "Diplococcus pneumoniae": {"system": "Diplococcus pneumoniae", "test": "standard disc-plate assay", "type": "cell-based", "conditions": "Streptococcus pneumoniae, disc diameter 6.35 mm, read-out: Zone Diameters", "protocol": "as §2"}, "[3]": {"system": "Staphylococcus aureus 3055", "test": "standard disc-plate assay", "type": "cell-based", "conditions": "Penicillin-G susceptible, disc diameter 6.35 mm, read-out: Zone Diameters", "protocol": "as §2"}, "[4]": {"system": "Staphylococcus aureus 3130", "test": "standard disc-plate assay", "type": "cell-based", "conditions": "Methicillin resistant, disc diameter 6.35 mm, read-out: Zone Diameters", "protocol": "as §2"}, "Streptococcus sp. 9960": {"system": "Streptococcus sp. 9960", "test": "standard disc-plate assay", "type": "cell-based", "conditions": "Group D, disc diameter 6.35 mm, read-out: Zone Diameters", "protocol": "as §2"}, "Streptococcus pyogenes [5]": {"system": "Streptococcus pyogenes", "test": "standard disc-plate assay", "type": "cell-based", "conditions": "Group A, disc diameter 6.35 mm, read-out: Zone Diameters", "protocol": "as §2"}, "[6]": {"system": "Hemophilus influenzae Laiv.", "test": "gradient-plate agar-dilution method", "type": "cell-based", "conditions": "Haemophilus influenzae"}, "[7]": {"system": "Streptococcus pneumoniae Park I", "test": "experimental bacterial infection in mice", "type": "in vivo", "conditions": "sc, read-out: ED50 × 2"}, "Fusobacterium symbiosum": {"system": "Fusobacterium symbiosum", "test": "standard agar-dilution test, anaerobic bacteria", "type": "cell-based", "conditions": "2 h"}, "powdery mildew": {"system": "powdery mildew", "test": "powdery mildew control on bean and barley plants", "type": "in vivo", "text": "The A-40104 antibiotics are also active against plant pathogens. […] The systemic activity of these antibiotics is especially advantageous in the control of plant pathogens or Spiroplasmas."}, "[8]": {"test": "acute toxicity, intraperitoneal injection in mice", "conditions": "mouse, in vivo, ip", "text": "A special advantage of the A-40104 antibiotics is that they are relatively nontoxic."}, "Streptococcus pyogenes [9]": {"system": "Streptococcus pyogenes", "test": "gradient-plate agar-dilution method", "type": "cell-based"}, "Clostridium perfringens": {"system": "Clostridium perfringens", "test": "microbe, parasite or virus in culture", "type": "cell-based"}, "[10]": {"system": "Peptococcus asaccharolyticus", "test": "standard agar-dilution test, anaerobic bacteria", "type": "cell-based", "conditions": "Peptoniphilus asaccharolyticus, 2 h"}, "[11]": {"system": "Hemophilus influenzae 259", "test": "gradient-plate agar-dilution method", "type": "cell-based", "conditions": "Haemophilus influenzae"}, "Neisseria gonorrhea": {"system": "Neisseria gonorrhea", "test": "gradient-plate agar-dilution method", "type": "cell-based"}, "[12]": {"system": "Peptostreptococcus intermedius", "test": "standard agar-dilution test, anaerobic bacteria", "type": "cell-based", "conditions": "2 h"}, "[13]": {"system": "Streptococcus sp. 9960 (Group D)", "test": "gradient-plate agar-dilution method", "type": "cell-based"}, "Actinomyces israelii": {"system": "Actinomyces israelii", "test": "standard agar-dilution test, anaerobic bacteria", "type": "cell-based", "conditions": "read after 2 hours incubation", "text": "(§3) Table VIII summarizes the activity of A-40104 factor A, as determined by the standard agar-dilution test.\n(§4) *MIC determined by the agar-dilution method. Endpoints were read after 2"}, "Eubacterium aerofacines": {"system": "Eubacterium aerofacines", "test": "standard agar-dilution test, anaerobic bacteria", "type": "cell-based", "conditions": "2 h", "text": "as §3, §4"}, "[14]": {"system": "Peptostreptococcus anaerobius", "test": "standard agar-dilution test, anaerobic bacteria", "type": "cell-based", "conditions": "2 h", "text": "as §3, §4"}, "Clostridium septicum": {"system": "Clostridium septicum", "test": "standard agar-dilution test, anaerobic bacteria", "type": "cell-based", "conditions": "2 h", "text": "as §3, §4"}, "[15]": {"system": "Bacteroides thetaiotaomicron", "test": "standard agar-dilution test, anaerobic bacteria", "type": "cell-based", "conditions": "2 h", "text": "as §3, §4"}, "[16]": {"system": "Bacteroides melaninogenicus 1856/28", "test": "standard agar-dilution test, anaerobic bacteria", "type": "cell-based", "conditions": "Prevotella intermedia, read after 2 hours incubation", "text": "as §3, §4"}, "[17]": {"system": "Bacteroides Melaninogenicus 2736", "test": "standard agar-dilution test, anaerobic bacteria", "type": "cell-based", "conditions": "2 h"}, "[18]": {"system": "Streptococcus pyogenes C203", "test": "experimental bacterial infection in mice", "type": "in vivo", "conditions": "sc, two doses, challenge 195 × LD50 (ip), read-out: ED50 × 2"}, "Bacteroides fragilis 111": {"system": "Bacteroides fragilis 111", "test": "standard agar-dilution test, anaerobic bacteria", "type": "cell-based", "conditions": "Bacteroides fragilis, 111, 2 h"}, "Pasteurella hemolytica": {"system": "Pasteurella hemolytica", "test": "standard in vitro tests, Pasteurella", "type": "cell-based", "text": "(§5) Another veterinary aspect of this invention is the activity of the A-40104 antibiotics against Pasteurella species. P. multocida, for example, is a causative agent of respiratory infection in cattle, poultry, and swine. P. hemolytica is a major cause of respiratory disease in cattle. The activity of A-40104 factor A and its dihydro derivative against Pasteurella, as determined by standard in vitro tests, is summarized in Table X."}, "[19]": {"system": "Pasteurella multocida (bovine)", "test": "standard in vitro tests, Pasteurella", "type": "cell-based", "text": "as §5"}, "[20]": {"system": "Streptococcus sp. X-66 (Group D)", "test": "gradient-plate agar-dilution method", "type": "cell-based"}, "[21]": {"system": "pathogenic organisms, particularly gram-positive bacteria", "test": "antibacterial activity (general statement)", "type": "cell-based"}}}
{"smiles": "C=CC1(C)CC(OC(=O)CO[C@@H]2OC[C@@H](O)[C@H](O)[C@H]2O)C2(C)C(C)CCC3(CCC(=O)C32)C(C)C1O", "note": "(stereo partly drawn) [A-40104 factor A, β,D-xylopyranosyl acetal derivative of pleuromutilin]", "values": [{"measurement": "MIC", "setting": "[1]", "value": 8, "unit": "µg/mL"}, {"measurement": "titratable groups", "setting": "electrometric titration", "value": "no titratable groups are present"}, {"measurement": "MIC", "setting": "Bacteroides vulgatis", "value": 4, "unit": "µg/mL"}, {"measurement": "minimal inhibitory concentration (MIC)", "setting": "Mycoplasma gallisepticum", "value": "≤ 0.78"}, {"measurement": "minimal inhibitory concentration (MIC)", "setting": "Mycoplasma synoviae", "value": "≤ 0.78"}, {"measurement": "minimal inhibitory concentration (MIC)", "setting": "Mycoplasma hyopneumoniae", "value": 0.195}, {"measurement": "zone of inhibition at 10 µg/disc", "setting": "[2]; 10 mcg/disc", "value": 25.4, "unit": "mm"}, {"measurement": "zone of inhibition at 100 µg/disc", "setting": "[2]; 100 mcg/disc", "value": 29.2, "unit": "mm"}, {"measurement": "zone of inhibition at 10 µg/disc", "setting": "Diplococcus pneumoniae; 10 mcg/disc", "value": 14, "unit": "mm"}, {"measurement": "zone of inhibition at 100 µg/disc", "setting": "Diplococcus pneumoniae; 100 mcg/disc", "value": 20, "unit": "mm"}, {"measurement": "zone of inhibition at 10 µg/disc", "setting": "[3]; 10 mcg/disc", "value": 27.2, "unit": "mm"}, {"measurement": "zone of inhibition at 100 µg/disc", "setting": "[3]; 100 mcg/disc", "value": 31.2, "unit": "mm"}, {"measurement": "zone of inhibition at 10 µg/disc", "setting": "[4]; 10 mcg/disc", "value": 29.2, "unit": "mm"}, {"measurement": "zone of inhibition at 100 µg/disc", "setting": "[4]; 100 mcg/disc", "value": 34, "unit": "mm"}, {"measurement": "zone of inhibition at 10 µg/disc", "setting": "Streptococcus sp. 9960; 10 mcg/disc", "value": 0, "unit": "mm"}, {"measurement": "zone of inhibition at 100 µg/disc", "setting": "Streptococcus sp. 9960; 100 mcg/disc", "value": 8.7, "unit": "mm"}, {"measurement": "zone of inhibition at 10 µg/disc", "setting": "Streptococcus pyogenes [5]; 10 mcg/disc", "value": 21, "unit": "mm"}, {"measurement": "zone of inhibition at 100 µg/disc", "setting": "Streptococcus pyogenes [5]; 100 mcg/disc", "value": 27, "unit": "mm"}, {"measurement": "MIC", "setting": "[6]", "value": 4, "unit": "µg/mL"}, {"measurement": "ED50", "setting": "[7]", "value": 21.5, "unit": "mg/kg"}, {"measurement": "MIC", "setting": "Fusobacterium symbiosum", "value": 4, "unit": "µg/mL"}, {"measurement": "control of powdery mildew", "setting": "powdery mildew; bean and barley plants, soil drench, 100 ppm", "value": "control of powdery mildew is obtained"}, {"measurement": "activity against powdery mildew", "setting": "powdery mildew; foliar spray or soil drench", "value": "active against powdery mildew"}, {"measurement": "LD50", "setting": "[8]", "value": "> 300", "unit": "mg/kg"}, {"measurement": "MIC", "setting": "Streptococcus pyogenes [9]", "value": "< 0.01", "unit": "µg/mL"}, {"measurement": "MIC", "setting": "Clostridium perfringens", "value": 8, "unit": "µg/mL"}, {"measurement": "MIC", "setting": "[10]", "value": "≤ 0.5", "unit": "µg/mL"}, {"measurement": "MIC", "setting": "[11]", "value": 0.7, "unit": "µg/mL"}, {"measurement": "MIC", "setting": "Neisseria gonorrhea", "value": 0.5, "unit": "µg/mL"}, {"measurement": "MIC", "setting": "[12]", "value": "≤ 0.5", "unit": "µg/mL"}, {"measurement": "MIC", "setting": "[13]", "value": 70, "unit": "µg/mL"}, {"measurement": "MIC", "setting": "Actinomyces israelii", "value": "≤ 0.5", "unit": "µg/mL"}, {"measurement": "MIC", "setting": "Eubacterium aerofacines", "value": 16, "unit": "µg/mL"}, {"measurement": "MIC", "setting": "[14]", "value": 2, "unit": "µg/mL"}, {"measurement": "MIC", "setting": "Clostridium septicum", "value": 8, "unit": "µg/mL"}, {"measurement": "MIC", "setting": "[15]", "value": 2, "unit": "µg/mL"}, {"measurement": "MIC", "setting": "[16]", "value": 4, "unit": "µg/mL"}, {"measurement": "MIC", "setting": "[17]", "value": 4, "unit": "µg/mL"}, {"measurement": "ED50", "setting": "[18]", "value": 3.6, "unit": "mg/kg"}, {"measurement": "MIC", "setting": "Bacteroides fragilis 111", "value": 8, "unit": "µg/mL"}, {"measurement": "MIC", "setting": "Pasteurella hemolytica", "value": 25, "unit": "µg/mL"}, {"measurement": "MIC", "setting": "[19]", "value": 6.25, "unit": "µg/mL"}, {"measurement": "MIC", "setting": "[20]", "value": 0.5, "unit": "µg/mL"}, {"measurement": "growth inhibition of pathogenic organisms", "setting": "[21]", "value": "inhibit the growth of certain pathogenic organisms, particularly gram-positive bacteria"}]}
